# Results reported in patent US20140106967A1, “AUXIN PLANT GROWTH REGULATORS” (The Governors of The University of Alberta, priority 2011, published 2014).
# Test system: pea plants cv. 'Carneval'
# Assay: Growth chamber experiment 2, pea 'Carneval' sprayed with 4-ME-IAA: peduncle/pedicel growth and seed yield, with or without heat stress (Tables P3-P12)
# Format: in vivo, Pisum sativum L.
# Description: For growth chamber experiment, seeds of ‘Carneval’ were planted at an approximate depth of 2.5 cm in 3-L plastic pots (4 seeds per pot and thinned to 2 plants per pot after approximately 2 weeks) in 1:1 Sunshine #4 potting mix (Sun Gro Horticulture, Vancouver, Canada) and sand. The experiment was arranged in a completely randomized design and grown at the University of Alberta in a growth chamber set at 19° C./17° C. (day/night) with a 16/8-h photoperiod under cool-white fluorescent lights (54W/835/HO high fluorescent bulbs, Phillips, Holland; 350 μE m^2 s^−2). For the heat stress treatment, plants were placed in a separate growth chamber with a 16/8-h photoperiod under cool-white fluorescent lights (F54/15/835/HO high fluorescent bulbs, Phillips, Holland) for 4 days where the temperature was cycled over a 24 hr period as follows: 33° C. air temperature for 6 hours per day (between 11:00 and 17:00 hrs) for 4 days during the light cycle; the remainder of the light cycle was maintained at a 22° C. air temperature; the dark cycle was maintained at 19° C. After the 4 day heat treatment, the plants were returned to the same growth chamber they were originally grown in, where they were taken to maturity.
# For experiment 2, aqueous 4-methyl-indole-3-acetic acid (4-ME-IAA) solutions at 1×10^−7, 1×10^−6, 1×10^−5, or 1×10^−4 M in 0.1% (v/v) Tween 80 or aqueous 0.1% (v/v) Tween 80 (control) were applied as a spray to the entire plant to cover when the first flowering node of the main stem was near or at anthesis. In addition to the application at the timing cited above, one application of 4-ME-IAA at 1×10^−6 M or 1×10^−5 M was made when the floral buds were tightly clustered inside the stipule leaves at the stem apex (floral buds not visible outside of stipule leaves; designated the ‘Early’ treatment). In the heat stress treatment, the hormone or control treatment application was completed 16 hrs prior to the initiation of the first heat-stress cycle. The length and diameter (measured mid-length) of the lower and upper peduncles and pedicels of the inflorescence with two pods (or the lower peduncle and pedicel if a single pod node) at the first, second, third and fourth flowering nodes of the main stem of pea plants were determined for hormone-treated and control plants. Standard error of the mean (SE) was calculated for the means of all data for a measure of statistical significance in comparing treatment means.
# [1] = 1×10^−4 M, applied near or at anthesis, no heat stress
# [2] = 1×10^−4 M, first flowering node, heat stress (33° C. 6 h/day, 4 days)
# [3] = 1×10^−4 M, first flowering node, no heat stress
# [4] = 1×10^−4 M, fourth flowering node, heat stress (33° C. 6 h/day, 4 days)
# [5] = 1×10^−4 M, fourth flowering node, no heat stress
# [6] = 1×10^−4 M, heat stress (33° C. 6 h/day, 4 days)
# [7] = 1×10^−4 M, second flowering node, heat stress (33° C. 6 h/day, 4 days)
# [8] = 1×10^−4 M, second flowering node, no heat stress
# [9] = 1×10^−4 M, third flowering node, heat stress (33° C. 6 h/day, 4 days)
# [10] = 1×10^−4 M, third flowering node, no heat stress
# [11] = 1×10^−5 M, applied near or at anthesis, no heat stress
# [12] = 1×10^−5 M, first flowering node, heat stress (33° C. 6 h/day, 4 days)
# [13] = 1×10^−5 M, first flowering node, no heat stress
# [14] = 1×10^−5 M, fourth flowering node, heat stress (33° C. 6 h/day, 4 days)
# [15] = 1×10^−5 M, fourth flowering node, no heat stress
# [16] = 1×10^−5 M, heat stress (33° C. 6 h/day, 4 days)
# [17] = 1×10^−5 M, second flowering node, heat stress (33° C. 6 h/day, 4 days)
# [18] = 1×10^−5 M, second flowering node, no heat stress
# [19] = 1×10^−5 M, third flowering node, heat stress (33° C. 6 h/day, 4 days)
# [20] = 1×10^−5 M, third flowering node, no heat stress
# [21] = 1×10^−6 M, applied near or at anthesis, no heat stress
# [22] = 1×10^−6 M, first flowering node, heat stress (33° C. 6 h/day, 4 days)
compound,measurement,setting,value
"Cc1cccc2[nH]cc(CC(=O)O)c12 [4-ME-IAA, 4-methyl-indole-3-acetic acid]",Ratio of seed number on main stem to lateral stems,[1],4.6 ± 1.1
same,Seed number per plant,[1],56.7 ± 3.6
same,Seed weight per plant,[1],14.0 ± 1.0 g
same,Weight per seed,[1],0.247 ± 0.006 g
same,increase in seed yield (seed weight per plant) vs control,[1],61%
same,Lower Pedicel Length,[2],7.63 ± 0.46 mm
same,Lower Pedicel diameter,[2],1.58 ± 0.09 mm
same,Lower Peduncle Length,[2],52.22 ± 4.26 mm
same,Lower Peduncle diameter,[2],1.71 ± 0.06 mm
same,Upper Pedicel Length,[2],7.00 ± 0.45 mm
same,Upper Pedicel diameter,[2],1.6 ± 0.07 mm
same,Upper Peduncle Length,[2],17.00 ± 1.37 mm
same,Upper Peduncle diameter,[2],1.44 ± 0.07 mm
same,Lower Pedicel Length,[3],8.50 ± 0.37 mm
same,Lower Pedicel diameter,[3],1.73 ± 0.05 mm
same,Lower Peduncle Length,[3],69.70 ± 4.21 mm
same,Lower Peduncle diameter,[3],1.73 ± 0.07 mm
same,Upper Pedicel Length,[3],8.10 ± 0.43 mm
same,Upper Pedicel diameter,[3],1.54 ± 0.05 mm
same,Upper Peduncle Length,[3],15.20 ± 1.36 mm
same,Upper Peduncle diameter,[3],1.44 ± 0.03 mm
same,Lower Pedicel Length,[4],7.00 ± 0.41 mm
same,Lower Pedicel diameter,[4],1.45 ± 0.11 mm
same,Lower Peduncle Length,[4],25.50 ± 3.97 mm
same,Lower Peduncle diameter,[4],1.38 ± 0.10 mm
same,Upper Pedicel Length,[4],7.00 ± 0.0 mm
same,Upper Pedicel diameter,[4],1.33 ± 0.15 mm
same,Upper Peduncle Length,[4],14.50 ± 0.50 mm
same,Upper Peduncle diameter,[4],1.17 ± 0.02 mm
same,Lower Pedicel Length,[5],8.44 ± 0.23 mm
same,Lower Pedicel diameter,[5],1.42 ± 0.05 mm
same,Lower Peduncle Length,[5],41.00 ± 3.24 mm
same,Lower Peduncle diameter,[5],1.36 ± 0.06 mm
same,Upper Pedicel Length,[5],8.22 ± 0.14 mm
same,Upper Pedicel diameter,[5],1.36 ± 0.06 mm
same,Upper Peduncle Length,[5],16.67 ± 0.39 mm
same,Upper Peduncle diameter,[5],1.17 ± 0.04 mm
same,Ratio of seed number on main stem to lateral stems,[6],2.1 ± 0.4
same,Seed number plant,[6],55.6 ± 6.2
same,Seed weight per per plant,[6],14.5 ± 1.7 g
same,Weight per seed,[6],0.261 ± 0.009 g
same,Lower Pedicel Length,[7],7.56 ± 0.38 mm
same,Lower Pedicel diameter,[7],1.56 ± 0.06 mm
same,Lower Peduncle Length,[7],40.33 ± 4.51 mm
same,Lower Peduncle diameter,[7],1.63 ± 0.04 mm
same,Upper Pedicel Length,[7],7.25 ± 0.25 mm
same,Upper Pedicel diameter,[7],1.54 ± 0.05 mm
same,Upper Peduncle Length,[7],16.88 ± 1.52 mm
same,Upper Peduncle diameter,[7],1.29 ± 0.04 mm
same,Lower Pedicel Length,[8],8.30 ± 0.47 mm
same,Lower Pedicel diameter,[8],1.65 ± 0.05 mm
same,Lower Peduncle Length,[8],55.60 ± 4.08 mm
same,Lower Peduncle diameter,[8],1.67 ± 0.06 mm
same,Upper Pedicel Length,[8],8.3 ± 0.47 mm
same,Upper Pedicel diameter,[8],1.55 ± 0.05 mm
same,Upper Peduncle Length,[8],18.40 ± 0.72 mm
same,Upper Peduncle diameter,[8],1.38 ± 0.05 mm
same,Lower Pedicel Length,[9],7.33 ± 0.29 mm
same,Lower Pedicel diameter,[9],1.55 ± 0.08 mm
same,Lower Peduncle Length,[9],28.22 ± 3.07 mm
same,Lower Peduncle diameter,[9],1.53 ± 0.06 mm
same,Upper Pedicel Length,[9],7.50 ± 0.29 mm
same,Upper Pedicel diameter,[9],1.49 ± 0.05 mm
same,Upper Peduncle Length,[9],14.00 ± 1.00 mm
same,Upper Peduncle diameter,[9],1.29 ± 0.03 mm
same,Lower Pedicel Length,[10],8.20 ± 0.33 mm
same,Lower Pedicel diameter,[10],1.49 ± 0.06 mm
same,Lower Peduncle Length,[10],49.90 ± 4.2 mm
same,Lower Peduncle diameter,[10],1.53 ± 0.05 mm
same,Upper Pedicel Length,[10],8.10 ± 0.28 mm
same,Upper Pedicel diameter,[10],1.40 ± 0.06 mm
same,Upper Peduncle Length,[10],19.10 ± 0.75 mm
same,Upper Peduncle diameter,[10],1.21 ± 0.04 mm
same,Ratio of seed number on main stem to lateral stems,[11],3.3 ± 0.6
same,Seed number per plant,[11],60.3 ± 3.2
same,Seed weight per plant,[11],14.0 ± 0.9 g
same,Weight per seed,[11],0.230 ± 0.004 g
same,increase in seed yield (seed weight per plant) vs control,[11],61%
same,Lower Pedicel Length,[12],9.11 ± 0.26 mm
same,Lower Pedicel diameter,[12],1.59 ± 0.06 mm
same,Lower Peduncle Length,[12],61.33 ± 4.13 mm
same,Lower Peduncle diameter,[12],1.60 ± 0.08 mm
same,Upper Pedicel Length,[12],8.83 ± 0.17 mm
same,Upper Pedicel diameter,[12],1.56 ± 0.08 mm
same,Upper Peduncle Length,[12],16.00 ± 1.46 mm
same,Upper Peduncle diameter,[12],1.33 ± 0.04 mm
same,Lower Pedicel Length,[13],8.70 ± 0.45 mm
same,Lower Pedicel diameter,[13],1.58 ± 0.04 mm
same,Lower Peduncle Length,[13],63.10 ± 4.95 mm
same,Lower Peduncle diameter,[13],1.53 ± 0.05 mm
same,Upper Pedicel Length,[13],8.70 ± 0.37 mm
same,Upper Pedicel diameter,[13],1.49 ± 0.03 mm
same,Upper Peduncle Length,[13],19.90 ± 1.12 mm
same,Upper Peduncle diameter,[13],1.31 ± 0.03 mm
same,Lower Pedicel Length,[14],7.17 ± 0.48 mm
same,Lower Pedicel diameter,[14],1.41 ± 0.07 mm
same,Lower Peduncle Length,[14],29.50 ± 2.63 mm
same,Lower Peduncle diameter,[14],1.39 ± 0.02 mm
same,Lower Pedicel Length,[15],9.00 ± 0.44 mm
same,Lower Pedicel diameter,[15],1.22 ± 0.09 mm
same,Lower Peduncle Length,[15],40.22 ± 3.64 mm
same,Lower Peduncle diameter,[15],1.41 ± 0.05 mm
same,Upper Pedicel Length,[15],8.88 ± 0.44 mm
same,Upper Pedicel diameter,[15],1.11 ± 0.10 mm
same,Upper Peduncle Length,[15],18.13 ± 0.88 mm
same,Upper Peduncle diameter,[15],1.03 ± 0.08 mm
same,Ratio of seed number on main stem to lateral stems,[16],1.1 ± 0.1
same,Seed number plant,[16],50.6 ± 5.0
same,Seed weight per per plant,[16],13.7 ± 1.2 g
same,Weight per seed,[16],0.274 ± 0.005 g
same,Lower Pedicel Length,[17],8.11 ± 0.11 mm
same,Lower Pedicel diameter,[17],1.68 ± 0.07 mm
same,Lower Peduncle Length,[17],47.11 ± 5.35 mm
same,Lower Peduncle diameter,[17],1.58 ± 0.05 mm
same,Upper Pedicel Length,[17],8.00 ± 0.29 mm
same,Upper Pedicel diameter,[17],1.55 ± 0.06 mm
same,Upper Peduncle Length,[17],16.33 ± 0.82 mm
same,Upper Peduncle diameter,[17],1.32 ± 0.04 mm
same,Lower Pedicel Length,[18],8.80 ± 0.33 mm
same,Lower Pedicel diameter,[18],1.50 ± 0.04 mm
same,Lower Peduncle Length,[18],53.50 ± 5.01 mm
same,Lower Peduncle diameter,[18],1.45 ± 0.04 mm
same,Upper Pedicel Length,[18],8.60 ± 0.37 mm
same,Upper Pedicel diameter,[18],1.39 ± 0.04 mm
same,Upper Peduncle Length,[18],18.10 ± 0.74 mm
same,Upper Peduncle diameter,[18],1.16 ± 0.03 mm
same,Lower Pedicel Length,[19],7.67 ± 0.37 mm
same,Lower Pedicel diameter,[19],1.58 ± 0.06 mm
same,Lower Peduncle Length,[19],39.22 ± 3.35 mm
same,Lower Peduncle diameter,[19],1.52 ± 0.05 mm
same,Upper Pedicel Length,[19],7.00 ± 0.32 mm
same,Upper Pedicel diameter,[19],1.56 ± 0.08 mm
same,Upper Peduncle Length,[19],16.20 ± 1.74 mm
same,Upper Peduncle diameter,[19],1.38 ± 0.09 mm
same,Lower Pedicel Length,[20],8.56 ± 0.41 mm
same,Lower Pedicel diameter,[20],1.35 ± 0.04 mm
same,Lower Peduncle Length,[20],47.11 ± 4.73 mm
same,Lower Peduncle diameter,[20],1.53 ± 0.03 mm
same,Upper Pedicel Length,[20],8.67 ± 0.29 mm
same,Upper Pedicel diameter,[20],1.25 ± 0.05 mm
same,Upper Peduncle Length,[20],20.44 ± 1.00 mm
same,Upper Peduncle diameter,[20],1.13 ± 0.05 mm
same,Ratio of seed number on main stem to lateral stems,[21],2.9 ± 0.6
same,Seed number per plant,[21],63.3 ± 4.6
same,Seed weight per plant,[21],14.9 ± 0.9 g
same,Weight per seed,[21],0.238 ± 0.006 g
same,increase in seed yield (seed weight per plant) vs control,[21],71%
same,Lower Pedicel Length,[22],8.80 ± 0.29 mm
same,Lower Pedicel diameter,[22],1.47 ± 0.05 mm
same,Lower Peduncle Length,[22],60.40 ± 5.23 mm
